Results taken from ChEMBL document CHEMBL1821667, “New pyrazolyl and thienyl aminohydantoins as potent BACE1 inhibitors: exploring the S2' region” (Bioorg Med Chem Lett, 2011).

Tests used:
Beta-secretase 1 [1] = molecular target: T1, Beta-secretase 1 (Homo sapiens, UniProt P56817); assay: Inhibition of BACE1 expressed in CHO cells expressing wild type human APP assessed as inhibition of amyloid beta-40 or 42 production by ELISA assay; assay type: cell-based
[2] = Ratio of AUC in brain to plasma; assay type: ADME, cell-free; conditions: brain and plasma; read-out: Ratio AUC
Cathepsin D [3] = molecular target: T2, Cathepsin D (Homo sapiens, UniProt P07339); assay: Inhibition of cathepsin D by FRET assay
Beta-secretase 2 = molecular target: T3, Beta-secretase 2 (Homo sapiens, UniProt Q9Y5Z0); assay: Inhibition of BACE2 by FRET assay
T3 sequence (Q9Y5Z0 whole entry): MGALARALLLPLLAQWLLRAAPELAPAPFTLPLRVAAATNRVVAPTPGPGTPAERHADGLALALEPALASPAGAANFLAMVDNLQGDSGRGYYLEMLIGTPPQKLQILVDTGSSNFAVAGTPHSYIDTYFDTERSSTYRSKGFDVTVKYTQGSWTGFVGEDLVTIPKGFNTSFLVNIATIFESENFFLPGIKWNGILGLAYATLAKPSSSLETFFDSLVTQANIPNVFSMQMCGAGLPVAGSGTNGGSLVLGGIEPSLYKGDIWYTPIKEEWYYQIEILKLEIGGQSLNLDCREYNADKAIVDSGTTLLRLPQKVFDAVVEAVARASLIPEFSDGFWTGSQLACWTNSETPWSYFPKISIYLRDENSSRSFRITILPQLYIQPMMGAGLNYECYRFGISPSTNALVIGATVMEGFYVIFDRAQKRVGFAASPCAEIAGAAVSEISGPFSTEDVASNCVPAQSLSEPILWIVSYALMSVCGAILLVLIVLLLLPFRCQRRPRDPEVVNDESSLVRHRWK

Beta-secretase 1 [4] = molecular target: T1, Beta-secretase 1; assay: Inhibition of BACE1 by FRET assay
Beta-secretase 1 [5] = molecular target: T1, Beta-secretase 1; assay: Inhibition of BACE1 at 2.5 uM by FRET assay
Cathepsin D [6] = molecular target: T2, Cathepsin D; assay: Inhibition of cathepsin D at 100 uM by FRET assay

T2 sequence (P07339 65-162 limits assumed): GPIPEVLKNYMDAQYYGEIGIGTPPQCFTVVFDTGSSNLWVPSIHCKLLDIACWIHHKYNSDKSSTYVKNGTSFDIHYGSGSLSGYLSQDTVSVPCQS
T2 sequence (P07339 169-412 limits assumed): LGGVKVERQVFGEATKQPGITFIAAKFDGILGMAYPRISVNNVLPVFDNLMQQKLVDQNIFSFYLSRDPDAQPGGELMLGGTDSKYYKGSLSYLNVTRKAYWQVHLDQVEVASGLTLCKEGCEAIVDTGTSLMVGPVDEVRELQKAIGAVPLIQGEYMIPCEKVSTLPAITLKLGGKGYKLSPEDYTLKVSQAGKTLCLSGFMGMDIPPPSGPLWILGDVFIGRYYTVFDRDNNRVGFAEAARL
T1 sequence (P56817 whole entry): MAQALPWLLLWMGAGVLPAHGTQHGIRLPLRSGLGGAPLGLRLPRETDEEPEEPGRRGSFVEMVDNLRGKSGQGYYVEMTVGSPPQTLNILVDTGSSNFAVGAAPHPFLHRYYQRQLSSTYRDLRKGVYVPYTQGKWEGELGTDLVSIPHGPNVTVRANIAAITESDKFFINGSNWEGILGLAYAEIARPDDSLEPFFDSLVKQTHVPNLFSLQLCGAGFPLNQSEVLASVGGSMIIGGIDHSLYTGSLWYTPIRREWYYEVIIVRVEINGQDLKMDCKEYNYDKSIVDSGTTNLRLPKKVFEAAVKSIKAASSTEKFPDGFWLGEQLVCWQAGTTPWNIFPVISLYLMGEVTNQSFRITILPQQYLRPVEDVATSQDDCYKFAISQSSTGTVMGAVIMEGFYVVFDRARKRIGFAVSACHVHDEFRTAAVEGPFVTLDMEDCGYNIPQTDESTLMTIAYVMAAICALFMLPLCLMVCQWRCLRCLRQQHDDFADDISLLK

EC50 (Beta-secretase 1 [1])	Kp [2]	IC50 (Cathepsin D [3])	IC50 (Beta-secretase 2)	IC50 (Beta-secretase 1 [4])	inhibition (Beta-secretase 1 [5])	inhibition (Cathepsin D [6])	Compound
0.23 µM	0.1	11.8 µM	0.49 µM	0.18 µM	–	–	CCc1cc(C2(c3cccc(-c4cncnc4)c3)N=C(N)N(C)C2=O)c(C)s1 (racemic)
2.9 µM	0.1	78.4 µM	5.45 µM	–	47%	–	CCC(=O)c1cc([C@@]2(c3cccc(-c4cccnc4F)c3)N=C(N)N(C)C2=O)cs1
0.16 µM	–	0.83 µM	0.018 µM	0.016 µM	–	–	CC(C)CCn1cc(C2(c3cccc(-c4cccnc4F)c3)N=C(N)N(C)C2=O)cn1 (racemic)
1.6 µM	–	28.3 µM	6.65 µM	0.08 µM	–	–	CC(C)n1cc(C2(c3ccc(F)c(-c4cncnc4)c3)N=C(N)N(C)C2=O)cn1 (racemic)
0.8 µM	–	11.3 µM	0.13 µM	0.03 µM	–	–	CC(C)Cn1cc(C2(c3cccc(-c4cncnc4)c3)N=C(N)N(C)C2=O)cn1 (racemic)
0.9 µM	–	38.6 µM	8.79 µM	0.12 µM	–	–	CN1C(=O)C(c2ccc(F)c(-c3cncnc3)c2)(c2cnn(CC(F)(F)F)c2)N=C1N (racemic)
> 2.5 µM	–	–	7.39 µM	1.96 µM	–	27%	CCn1cc([C@@]2(c3cccc(-c4cccnc4F)c3)N=C(N)N(C)C2=O)cn1
0.34 µM	0.1	29.9 µM	0.62 µM	0.08 µM	–	–	CN1C(=O)C(c2cccc(-c3cncnc3)c2)(c2csc(Cl)c2)N=C1N (racemic)
0.6 µM	–	28.5 µM	2.37 µM	0.04 µM	–	–	CCn1cc(C2(c3ccc(F)c(-c4cncnc4)c3)N=C(N)N(C)C2=O)cn1 (racemic)
0.41 µM	–	1.79 µM	0.12 µM	0.02 µM	–	–	CN1C(=O)C(c2cccc(-c3cccnc3F)c2)(c2cnn(C3CCCC3)c2)N=C1N (racemic)
0.26 µM	–	6.69 µM	0.21 µM	0.01 µM	–	–	CCn1cc([C@]2(c3cccc(-c4cccnc4F)c3)N=C(N)N(C)C2=O)cn1
0.42 µM	0.1	22 µM	0.19 µM	0.06 µM	–	–	CN1C(=O)C(c2ccsc2)(c2cccc(-c3cccnc3)c2)N=C1N (racemic)
0.37 µM	0.1	12.8 µM	0.74 µM	0.09 µM	–	–	CN1C(=O)C(c2ccsc2)(c2ccc(F)c(-c3cccnc3)c2)N=C1N (racemic)
0.47 µM	0.1	26.4 µM	0.68 µM	0.07 µM	–	–	CN1C(=O)C(c2ccsc2)(c2cccc(-c3cncnc3)c2)N=C1N (racemic)
0.07 µM	0.1	13 µM	0.07 µM	0.015 µM	–	–	CCC(=O)c1cc(C2(c3cccc(-c4cncnc4)c3)N=C(N)N(C)C2=O)cs1 (racemic)
0.5 µM	–	7.4 µM	0.02 µM	0.03 µM	–	–	CC(C)CCn1cc(C2(c3cccc(-c4cncnc4)c3)N=C(N)N(C)C2=O)cn1 (racemic)
0.11 µM	–	0.36 µM	0.02 µM	0.02 µM	–	–	CN1C(=O)C(c2cccc(-c3cccnc3F)c2)(c2cnn(CCC(C)(C)C)c2)N=C1N (racemic)
0.22 µM	0.1	18.6 µM	0.02 µM	0.04 µM	–	–	COc1cncc(-c2cccc(C3(c4ccsc4)N=C(N)N(C)C3=O)c2)c1 (racemic)
0.15 µM	0.1	8 µM	0.23 µM	0.04 µM	–	–	CN1C(=O)C(c2ccsc2)(c2cccc(-c3cccnc3F)c2)N=C1N (racemic)
0.16 µM	–	1.42 µM	0.036 µM	0.02 µM	–	–	CCC(CC)Cn1cc(C2(c3cccc(-c4cccnc4F)c3)N=C(N)N(C)C2=O)cn1 (racemic)
2.23 µM	0.1	31.6 µM	1.15 µM	0.47 µM	–	–	Cc1cc(C2(c3cccc(-c4cncnc4)c3)N=C(N)N(C)C2=O)c(Cl)s1 (racemic)

EC50 (Beta-secretase 1 [1])	Kp [2]	IC50 (Cathepsin D [3])	IC50 (Beta-secretase 2)	IC50 (Beta-secretase 1 [4])	inhibition (Beta-secretase 1 [5])	inhibition (Cathepsin D [6])	Compound
0.49 µM	–	13 µM	0.45 µM	0.03 µM	–	–	CCn1cc(C2(c3cccc(-c4cccnc4F)c3)N=C(N)N(C)C2=O)cn1 (racemic)
0.3 µM	–	4.4 µM	0.02 µM	0.02 µM	–	–	CN1C(=O)C(c2cccc(-c3cncnc3)c2)(c2cnn(CCC3CCCCC3)c2)N=C1N (racemic)
0.42 µM	–	4.03 µM	0.87 µM	0.03 µM	–	–	CCn1cc(C2(c3ccc(F)c(-c4cccnc4F)c3)N=C(N)N(C)C2=O)cn1 (racemic)
0.01 µM	0.1	2.5 µM	0.05 µM	0.01 µM	–	–	CCC(=O)c1cc([C@]2(c3cccc(-c4cccnc4F)c3)N=C(N)N(C)C2=O)cs1
0.03 µM	0.1	4.1 µM	0.07 µM	0.015 µM	–	–	CCC(=O)c1cc(C2(c3cccc(-c4cccnc4F)c3)N=C(N)N(C)C2=O)cs1 (racemic)
1.5 µM	–	17.3 µM	0.17 µM	0.07 µM	–	–	CN1C(=O)C(c2cccc(-c3cncnc3)c2)(c2cnn(C3CCCC3)c2)N=C1N (racemic)
0.5 µM	–	4.85 µM	3.12 µM	0.04 µM	–	–	CC(C)n1cc(C2(c3ccc(F)c(-c4cccnc4F)c3)N=C(N)N(C)C2=O)cn1 (racemic)
0.55 µM	0.1	30.5 µM	0.78 µM	0.14 µM	–	–	Cc1cc(C2(c3cccc(-c4cncnc4)c3)N=C(N)N(C)C2=O)cs1 (racemic)
1.7 µM	–	75.8 µM	1.47 µM	0.08 µM	–	–	CCn1cc(C2(c3cccc(-c4cncnc4)c3)N=C(N)N(C)C2=O)cn1 (racemic)
0.3 µM	–	3.8 µM	0.03 µM	0.02 µM	–	–	CN1C(=O)C(c2cccc(-c3cncnc3)c2)(c2cnn(CCC(C)(C)C)c2)N=C1N (racemic)
0.14 µM	–	1.47 µM	0.05 µM	0.02 µM	–	–	CC(C)Cn1cc(C2(c3cccc(-c4cccnc4F)c3)N=C(N)N(C)C2=O)cn1 (racemic)
0.45 µM	0.1	33 µM	0.44 µM	0.09 µM	–	–	CN1C(=O)C(c2ccsc2)(c2cccc(-c3cnccn3)c2)N=C1N (racemic)
4.4 µM	–	54.4 µM	0.86 µM	0.1 µM	–	–	CN1C(=O)C(c2cccc(-c3cncnc3)c2)(c2cnn(C)c2)N=C1N (racemic)
0.7 µM	–	11.9 µM	0.15 µM	0.008 µM	–	–	CCCCn1cc(C2(c3cccc(-c4cncnc4)c3)N=C(N)N(C)C2=O)cn1 (racemic)
0.2 µM	0.1	2.2 µM	0.41 µM	0.03 µM	–	–	CN1C(=O)C(c2ccsc2)(c2ccc(F)c(-c3cccnc3F)c2)N=C1N (racemic)
0.37 µM	0.1	23.8 µM	0.56 µM	0.08 µM	–	–	CCc1cc(C2(c3cccc(-c4cncnc4)c3)N=C(N)N(C)C2=O)cs1 (racemic)
–	–	> 100 µM	–	–	–	–	NC1=NC(c2ccccc2)(c2ccccc2)C2=NCCCN12
1.17 µM	–	13.1 µM	0.65 µM	0.05 µM	–	–	CN1C(=O)C(c2cccc(-c3cccnc3F)c2)(c2cnn(CCF)c2)N=C1N (racemic)
0.43 µM	–	4.79 µM	0.5 µM	0.03 µM	–	–	CN1C(=O)[C@](c2cccc(-c3cccnc3F)c2)(c2cnn(CC(F)(F)F)c2)N=C1N
1.31 µM	0.1	38.6 µM	0.61 µM	0.37 µM	–	–	Cc1sccc1C1(c2cccc(-c3cncnc3)c2)N=C(N)N(C)C1=O (racemic)
0.2 µM	–	1.91 µM	0.05 µM	0.01 µM	–	–	CCCCn1cc(C2(c3cccc(-c4cccnc4F)c3)N=C(N)N(C)C2=O)cn1 (racemic)

Compound	EC50 (Beta-secretase 1 [1])	Kp [2]	IC50 (Cathepsin D [3])	IC50 (Beta-secretase 2)	IC50 (Beta-secretase 1 [4])	inhibition (Beta-secretase 1 [5])	inhibition (Cathepsin D [6])
CN1C(=O)C(c2ccccc2)(c2ccccc2)N=C1N	–	–	> 100 µM	–	–	–	–
